Several values for one entry are separate records, joined by “and”; a condition that tells them apart may be missing. Identical values can stand only once. Counter-ions that a name gives are not always drawn. Like-named read-outs stand apart in the source and are kept apart here.
Assays:
A549 = test: Cell viability analysis (WST-1), A549; assay type: cell-based; details: Homo sapiens, read-out: survival rate (viability) of cells
Description: (§1) The cell numbers were counted and reseed as 2×10^6 in culture plate/flask. Then, the culture medium were added to a volume of 10 ml, and the cells were cultured for 2-3 days. Then, the cells were suspended for loading into 96-well plates. The number of cells was 3000 and the volume of the culture medium was 100 μl each well.
(§2) Removing the original culture medium from 96-well plate. Then add 100 μl of commercially drug at a concentration of 10 μM per well. After 72 hours, add the diluted WST-1 reagent to the well with 100 μl/well, and the diluted WST-1 reagent was acquired from the dilution of 9:1 medium and WST-1 stock reagent. Finally, the total volume of each well was 200 μl/well. Culture the 96-well plate at 37° C. for 30 to 90 minutes. Detecting and calculate the survival rate of each cancer cells with an ELISA reader at OD450 nm. The lower viability of cancer cells represents better inhibition effect via the Cinacalcet HCl drug. Otherwise, the higher viability of cancer cells represents worse inhibition effect via the Cinacalcet HCl drug.
(§3) This inhibition test of Cinacalcet HCl on pleural-related cancer cells were using two lung cancer cell lines A549 and H1650. The inhibitory tests of Cinacalcet HCl were performed 4 times for each cell lines and then the average value of the inhibitory tests was calculated.

TSGH = test: Cell viability analysis (WST-1), TSGH; assay type: cell-based; details: read-out: survival rate (viability) of cells
Description: as §1, §2
(§4) This inhibition test of Cinacalcet HCl on abdominal-related cancer cells were using bladder cancer cell line TSGH and T24 (Table 3), cervical cancer cell lines HeLa and C-33A (Table 4), renal cancer cell line 786-O (Table 5). The inhibitory tests of Cinacalcet HCl were performed 4 times for each cell lines and then the average value of the inhibitory tests was calculated.

HeLa = test: Cell viability analysis (WST-1), HeLa; assay type: cell-based; details: Homo sapiens, read-out: survival rate (viability) of cells
Description: as §1, §2, §4

NIH-OVCAR-3 = test: Cell viability analysis (WST-1), NIH-OVCAR-3; assay type: cell-based; details: Homo sapiens, read-out: survival rate (viability) of cells
Description: as §1, §2
This inhibition test of Cinacalcet HCl on endocrine-related cancer cells were using prostate cancer cell lines PC-3 and LNCap (Table 6), breast cancer cell lines MCF7 and MDA-MB-231 (Table 7), and ovarian cancer cell lines NIH-OVCAR-3 and TOV-21G (Table 8). The inhibitory tests of Cinacalcet HCl were performed 4 times for each cell lines and then the average value of the inhibitory tests was calculated.

MKN-45 = test: Cell viability analysis (WST-1), MKN-45; assay type: cell-based; details: Homo sapiens, read-out: survival rate (viability) of cells
Description: as §1, §2
(§5) This inhibition test of Cinacalcet HCl on gastrointestinal tract-related cancer cells were using gastric cancer cell lines AGS and MKN-45 (Table 9), hepatic cancer cell lines HepG2 and Hep3B (Table 10), colorectal cancer cell lines HCT116-wt and LoVo (Table 11), pancreatic cancer cell line AsPC-1 and BxPC-3(Table 12), tongue cancer cell line SAS (Table 13). The inhibitory tests of Cinacalcet HCl were performed 4 times for each cell lines and then the average value of the inhibitory tests was calculated.

SAS = test: Cell viability analysis (WST-1), SAS; assay type: cell-based
Description: as §1, §2, §5

BCC = test: Cell viability analysis (WST-1), BCC; assay type: cell-based; details: read-out: survival rate (viability) of cells
Description: as §1, §2
as §3, with “other” for “pleural-related”, “osteosarcoma cell line U2OS (Table 14), skin” for “two lung”, “A375” for “A549”, “BCC (Table 15).” for “H1650.”

pancreatic cancer cells = test: Summary of cell viability, pancreatic cancer cells; assay type: cell-based; details: 72 hours, read-out: Inhibitory effect
Description: as §1, §2
Cinacalcet HCl is having different inhibitory effect on different tumor cell type even in the same cancer. […] (FIG. 1)

[1] = Animal model test of gastric cancer, body weight and health status; assay type: in vivo, mice; details: for weight: single mice A, B, C, hydrochloride
Description: In this invention, the female mice were(BALB/cAnN.Cg-Foxnl™/CrlNarl) and purchased from National Laboratory Animal Center (Taiwan). The weight of the mice were 21±1 g. These mice were subcutaneously injected with gastric cancer cells (AGS) and then put these mice into different cages at random. The drug test experiment was divided into three groups, include “control group”, “low dose group (100 mg/kg/day)”, “high dose group (200 mg/kg/day)”. These mice were then injected test drug intraperitoneally once daily […]. The tumor sizes and body weight were measured twice a week. The tumor sizes were measured and calculated by formula: (L×W^2)/2. L represents the tumor longest length. W represents the tumor shortest diameter.

normal cells = test: Toxicity to normal cells; assay type: cell-based
Description: as §2
This inhibition test of Cinacalcet HCl on normal cells were using normal kidney cell line HEK293 (Table 16), normal pulmonary epithelial cell lines […] BEAS-2B (Table 17). The inhibitory tests of Cinacalcet HCl were performed 4 times for each cell lines and then the average value of the inhibitory tests was calculated The results were shown in Tables 16 and Tables 17.

C[C@@H](NCCCc1cccc(C(F)(F)F)c1)c1cccc2ccccc12 [Cinacalcet HCl, Cinacalcet hydrochloride]
viability at 10 µM (A549; A549, 10 μM, 72 hours, test 0524-10 min): 87.7%
viability at 10 µM (A549; A549, 10 μM, 72 hours, test 0526-10 min): 103%
viability at 10 µM (A549; A549, 10 μM, 72 hours, test 0529-10 min): 75.5%
viability at 10 µM (A549; A549, 10 μM, 72 hours, test 0531-10 min): 92.6%
viability at 10 µM (A549; A549, 72 h, 10 μM, Average of tests): 89.6%
viability at 10 µM (TSGH; 72 h, average of tests): 59.8%
viability at 10 µM (TSGH; 72 hours, test 0510-10 min): 57.3%
viability at 10 µM (TSGH; 72 hours, test 0512-10 min): 73.2%
viability at 10 µM (TSGH; 72 hours, test 0515-10 min): 74.7%
viability at 10 µM (TSGH; 72 hours, test 0517-10 min): 33.9%
viability at 10 µM (HeLa; 72 h, average of tests): 111%
viability at 10 µM (HeLa; 72 hours, test 0524-10 min): 110%
viability at 10 µM (HeLa; 72 hours, test 0526-10 min): 119%
viability at 10 µM (HeLa; 72 hours, test 0529-10 min): 104%
viability at 10 µM (HeLa; 72 hours, test 0531-10 min): 113%
viability at 10 µM (NIH-OVCAR-3; OVCAR-3, 10 μM, 72 hours, test 7-3-30 min): 90.7%
viability at 10 µM (NIH-OVCAR-3; OVCAR-3, 10 μM, 72 hours, test 7-4-30 min): 111%
viability at 10 µM (NIH-OVCAR-3; OVCAR-3, 10 μM, 72 hours, test 7-7-30 min): 100%
viability at 10 µM (NIH-OVCAR-3; OVCAR-3, 10 μM, 72 hours, test -4-30 min): 111%
viability at 10 µM (NIH-OVCAR-3; OVCAR-3, 72 h, 10 μM, average of tests): 103%
viability at 10 µM (MKN-45; MKN-45, 10 μM, 72 hours, test 0510-10 min): 82.1%
viability at 10 µM (MKN-45; MKN-45, 10 μM, 72 hours, test 0512-10 min): 102%
viability at 10 µM (MKN-45; MKN-45, 10 μM, 72 hours, test 0515-10 min): 104%
viability at 10 µM (MKN-45; MKN-45, 10 μM, 72 hours, test 0517-10 min): 69.1%
viability at 10 µM (MKN-45; MKN-45, 72 h, 10 μM, average of tests): 89.1%
viability at 10 µM (SAS; 72 h, average of tests, read-out: survival rate (viability) of cells): 82.4%
viability at 10 µM (SAS; 72 h, summary, tongue cancer, read-out: Inhibitory effect): 77.4%
viability at 10 µM (SAS; 72 hours, test 6-26-10 min, read-out: survival rate (viability) of cells): 45.7%
viability at 10 µM (SAS; 72 hours, test 6-28-10 min, read-out: survival rate (viability) of cells): 88.9%
viability at 10 µM (SAS; 72 hours, test 6-30-10 min, read-out: survival rate (viability) of cells): 96.2%
viability at 10 µM (SAS; 72 hours, test 7-3-10 min, read-out: survival rate (viability) of cells): 98.9%
viability at 10 µM (BCC; 72 h, average of tests): 111%
viability at 10 µM (BCC; 72 hours, test 0602-30 min): 114%
viability at 10 µM (BCC; 72 hours, test 0605-10 min): 106%
viability at 10 µM (BCC; 72 hours, test 0607-10 min): 113%
viability at 10 µM (pancreatic cancer cells): 82.4%
weight ([1]; Low dose (100 mg/kg/day) intraperitoneally, First measurement, 100 mg/kg/day): 20 g and 16 g and 21 g
weight ([1]; Low dose (100 mg/kg/day) intraperitoneally, Fourth measurement, 100 mg/kg/day): 22 g and 23 g
weight ([1]; Low dose (100 mg/kg/day) intraperitoneally, Second measurement, 100 mg/kg/day): 21 g and 22 g and 19 g
weight ([1]; Low dose (100 mg/kg/day) intraperitoneally, Third measurement, 100 mg/kg/day): 23.5 g and 21 g
health status / death of tested mice during the treatment ([1]; both high and low doses): without death
weight of mice during the experiment ([1]; both low dose and high dose): did not show a significant decrease
weight ([1]; high dose (200 mg/kg/day) intraperitoneally, Fourth measurement, 200 mg/kg/day): 23 g and 20 g
weight ([1]; high dose (200 mg/kg/day) intraperitoneally, Second measurement, 200 mg/kg/day): 18.5 g and 21 g and 19 g
weight ([1]; high dose (200 mg/kg/day) intraperitoneally, Third measurement, 200 mg/kg/day): 19 g and 22 g and 18.5 g
toxicity to normal cells (normal cells): no toxicity or had little toxicity

From patent publication US20170304228A1, “NEW INDICATION OF CINACALCET HCL PHARMACEUTICAL COMPOSITION FOR TREATING CANCER” (LAUNX BIOMEDICAL CO., LTD., priority 2014, published 2017)
